Experiments:
NAcC D2-MSNs [1] = test: electrically evoked EPSCs, whole-cell voltage clamp, NAcC D2-MSNs; type: cell-based, mice; settings: for effect of antagonist alone on synaptic properties: absence of other stimuli, Figures S2C–S2F; for EPSC amplitude, %baseline (block of stimulation-induced potentiation) / EPSC amplitude, %baseline (block of substance-P-induced potentiation) / EPSC amplitude, %baseline (block of stimulation-induced LLP): mean ± SEM
[2] = target: neurokinin 1 receptor (NK1R) (Homo sapiens, UniProt P25103); test: BRET assay, antagonist mode; type: biochemical; settings: antagonist added 15 min before 100 nM substance P, Figure S4G
Chain of neurokinin 1 receptor (NK1R) (P25103 whole entry, species assumed): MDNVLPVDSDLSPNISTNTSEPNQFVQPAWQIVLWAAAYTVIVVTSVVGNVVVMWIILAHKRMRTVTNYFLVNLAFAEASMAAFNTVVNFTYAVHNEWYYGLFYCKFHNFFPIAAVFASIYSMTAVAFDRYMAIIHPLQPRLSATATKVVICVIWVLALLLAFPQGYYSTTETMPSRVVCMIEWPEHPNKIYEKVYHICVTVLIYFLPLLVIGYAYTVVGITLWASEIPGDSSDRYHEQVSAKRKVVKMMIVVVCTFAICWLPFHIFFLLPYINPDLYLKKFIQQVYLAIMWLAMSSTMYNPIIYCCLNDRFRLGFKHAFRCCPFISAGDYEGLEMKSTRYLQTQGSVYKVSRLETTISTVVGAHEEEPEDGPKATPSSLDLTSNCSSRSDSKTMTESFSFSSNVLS
Chain of neurokinin 1 receptor (NK1R) (P50148 whole entry partner, species assumed): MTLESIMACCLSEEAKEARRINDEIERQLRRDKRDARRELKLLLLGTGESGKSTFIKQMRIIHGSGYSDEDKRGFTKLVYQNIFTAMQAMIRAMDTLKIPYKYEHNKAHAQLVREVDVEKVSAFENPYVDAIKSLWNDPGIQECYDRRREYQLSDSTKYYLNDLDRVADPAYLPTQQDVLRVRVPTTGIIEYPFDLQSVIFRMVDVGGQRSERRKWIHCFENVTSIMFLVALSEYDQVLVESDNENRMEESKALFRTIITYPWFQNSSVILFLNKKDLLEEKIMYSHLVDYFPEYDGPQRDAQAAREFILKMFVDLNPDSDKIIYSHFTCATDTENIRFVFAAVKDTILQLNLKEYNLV

NAcC ChAT neurons = test: ChAT neuron firing rate; type: cell-based, mice; settings: for spontaneous ChAT firing rate in the absence of substance P: L-733,060 10 μM or aprepitant 1 μM, Figure S4I; for stimulation-enhanced ChAT firing rate: 50-Hz D1-MSN stimulation; for substance-P-enhanced ChAT firing rate: substance P 100 nM
NAcS D2-MSNs = test: electrically evoked EPSCs, whole-cell voltage clamp, NAcS D2-MSNs; type: cell-based, mice; settings: D1-MSN 50-Hz stimulation
[3] = test system: AMPAR currents on NAcC D2-MSNs; test: AMPAR current-voltage relationship; type: cell-based, mice; settings: +40 mV; for inward rectification of AMPAR currents caused by stimulation: D1-MSN 50-Hz stimulation with inhibitor, Figures 7B, 7D, 7F, 7H
NAcC D2-MSNs [4] = test: paired pulse ratios, NAcC D2-MSNs; type: cell-based, mice; settings: D1-MSN 50-Hz stimulation with inhibitor; Figures S7A–S7D

How did the “effect of antagonist alone on synaptic properties” value (NAcC D2-MSNs [1]) turn out when `C[C@@H](O[C@H]1OCCN(Cc2n[nH]c(=O)[nH]2)[C@H]1c1ccc(F)cc1)c1cc(C(F)(F)F)cc(C(F)(F)F)c1` [aprepitant] was run?
The value was “neither L-733,060 nor aprepitant altered synaptic properties”.

What about the “EPSC amplitude, %baseline (block of stimulation-induced potentiation)” value (NAcC D2-MSNs [1]; aprepitant 1 μM, single 5-s, 50-Hz train of D1-MSN stimulation, n = 8, p > 0.05, Figure 2G) of the same compound?
The value was 98.02% ± 10.73%.

What about the “concentration of maximal inhibition of receptor activity” value [2] of the same compound?
Its value is roughly 10 µM.

And the “spontaneous ChAT firing rate in the absence of substance P” value (NAcC ChAT neurons)?
The value was “did not have effects on spontaneous ChAT firing rate”.

What about the “stimulation-enhanced ChAT firing rate” value (NAcC ChAT neurons; aprepitant 1 μM, n = 13, p > 0.05, Figure 5B) of the same compound?
The value was “suppressed, but not completely blocked”.

What about the “substance-P-enhanced ChAT firing rate” value (NAcC ChAT neurons; aprepitant 1 μM, Figure S4H) of the same compound?
The value was “suppressed”.

How did the “EPSC amplitude, %baseline (block of substance-P-induced potentiation)” value (NAcC D2-MSNs [1]; L-733,060 10 μM with substance P bath application, n = 9, p > 0.05, Figure 2B) turn out when `Cl.FC(F)(F)c1cc(CO[C@H]2CCCN[C@H]2c2ccccc2)cc(C(F)(F)F)c1` [L-733,060] was run?
The value was 101.1% ±7.07%.

And the “EPSC amplitude, %baseline (block of stimulation-induced potentiation)” value (NAcC D2-MSNs [1]; L-733,060, 5 min of NAcC D1-MSN 50-Hz stimulation, transient depression, Figure S2B)?
Its value is 79.52% ± 8.22%.

And the “effect of antagonist alone on synaptic properties” value (NAcC D2-MSNs [1])?
Its value is “neither L-733,060 nor aprepitant altered synaptic properties”.

What about the “concentration of maximal inhibition of receptor activity” value [2] of the same compound?
The value was roughly 10 µM.

And the “spontaneous ChAT firing rate in the absence of substance P” value (NAcC ChAT neurons)?
The value was “did not have effects on spontaneous ChAT firing rate”.

What about the “stimulation-enhanced ChAT firing rate” value (NAcC ChAT neurons; L-733,060 10 μM, Figure S5C) of the same compound?
Its value is “blocked”.

What about the “substance-P-enhanced ChAT firing rate” value (NAcC ChAT neurons; L-733,060 10 μM, Figures 4F, 4G) of the same compound?
The value was “suppressed”.

What about the “concentration of maximal inhibition of enhanced ChAT firing” value (NAcC ChAT neurons; against 100 nM substance P, Figure 4E) of the same compound?
Its value is 10 µM.

For `CC[N+](CC)(CCNC(=O)C(=O)NCC[N+](CC)(CC)Cc1ccccc1Cl)Cc1ccccc1Cl` [ambenonium], which “stimulation-induced depression on NAcS D2-MSNs” value (NAcS D2-MSNs; ambenonium 40 nM (acetylcholinesterase block), Figure S6G) is on record?
The value was “did not alleviate the depression”.

For `Oc1ccc2c3c1O[C@H]1c4[nH]c5c(c4C[C@@]4(O)[C@@H](C2)N(CC2CC2)CC[C@]314)C[C@@]1(O)[C@H]2Cc3ccc(O)c4c3[C@@]1(CCN2CC1CC1)[C@H]5O4` [norbinaltorphimine], which “EPSC amplitude, %baseline (stimulation-induced depression)” value (NAcS D2-MSNs; norbinaltorphimine 400 nM, mean ± SEM, Figure S1H) is on record?
Its value is 61.56% ± 10.78%.

picrotoxin was tested. Which “increase in baseline ChAT firing frequency” value (NAcC ChAT neurons; picrotoxin, on average, Figure S5F) did it give?
Its value is 1.37 ± 0.66 Hz.

With `CN1CCN(CC(=O)N2c3ccccc3C(=O)Nc3cccnc32)CC1` [pirenzepine] as the compound, how does the “EPSC amplitude, %baseline (block of substance-P-induced potentiation)” value (NAcC D2-MSNs [1]; pirenzepine 1 μM, substance P 100 nM, Figures 6A, S6B) read?
Its value is 103.1% ± 12.95%.

What about the “EPSC amplitude, %baseline (block of substance-P-induced potentiation)” value (NAcC D2-MSNs [1]; pirenzepine 1 μM, substance P 1 μM, Figures 6A, S6B) of the same compound?
Its value is 89.88% ± 9.14%.

And the “synaptic properties in D2-MSNs” value (NAcC D2-MSNs [1]; pirenzepine alone, Figure S6E)?
Its value is “did not affect synaptic properties”.

And the “AMPAR inward rectification caused by substance P or 50 Hz stimulation” value ([3]; pirenzepine, Figures 6C, 6D)?
The value was “prevented this rectification”.

And the “ChAT firing rate at baseline and its enhancement due to substance P” value (NAcC ChAT neurons; pirenzepine, Figures S6C, S6D)?
Its value is “neither affected ChAT firing rate at baseline nor the enhancement in firing frequency due to substance P”.

With `CC[C@H](NC(=O)c1c(C)c(-c2ccccc2)nc2ccccc12)c1ccccc1` [SB-2220] as the compound, how does the “substance-P-enhanced ChAT firing rate, further block” value (NAcC ChAT neurons; addition of 1 μM NK3R antagonist SB-2220, Figure S4J) read?
Its value is “not blocked any further”.

With `O=C(O)CN(CC(=O)O)c1ccccc1OCCOc1ccccc1N(CC(=O)O)CC(=O)O` [BAPTA, 1,2-bis(o-aminophenoxy)ethane-N,N,N′,N′-tetra-acetic acid] as the compound, how does the cells potentiated (NAcC D2-MSNs [1]; BAPTA 10 mM internal, D1-MSN 50-Hz stimulation, Figure 7E) read?
Its cells potentiated is 3/9.

And the “paired pulse ratio change after stimulation” value (NAcC D2-MSNs [4])?
Its value is “lack of ability to detect a change in PPR”.

What does the source list for `CC(=O)C1=C(O)[C@@H]2[C@H]3c4c[nH]c5cccc(c45)C[C@H]3C(C)(C)N2C1=O` [CPA, cyclopiazonic acid]?
EPSC amplitude, %baseline (block of stimulation-induced LLP) (NAcC D2-MSNs [1]; CPA, depletion of calcium stores, D1-MSN 50-Hz stimulation, n = 8, p > 0.05, Figure 7G): 80.18% ± 7.07%; inward rectification of AMPAR currents caused by stimulation [3]: prevented inward rectification; paired pulse ratio change after stimulation (NAcC D2-MSNs [4]): significantly increased

For `COc1ccc2c(c1)CC[C@@H]1[C@@H]2CC[C@]2(C)[C@@H](NCCCCCCN3C(=O)C=CC3=O)CC[C@@H]12` [U-73122], which “EPSC amplitude, %baseline (block of stimulation-induced LLP)” value (NAcC D2-MSNs [1]; U-73122 3 μM, D1-MSN 50-Hz stimulation, n = 9, p < 0.05, Figure 7C) is on record?
Its value is 66.06% ± 8.70%.

And the “inward rectification of AMPAR currents caused by stimulation” value [3]?
The value was “prevented inward rectification”.

What about the “paired pulse ratio change after stimulation” value (NAcC D2-MSNs [4]) of the same compound?
Its value is “significantly increased”.

Source: paper PMC6712577 (Neuron, 2019)
